In EP4644384A1 (Shanghai Lichun Biotech Co., Ltd., priority 2023, dated 2024):

Target: T1, CYP11A1 (Homo sapiens, UniProt P05108)
T1 construct: host or cells: NCI-H295R human adrenocortical cancer cells
T1 sequence (P05108 40-521): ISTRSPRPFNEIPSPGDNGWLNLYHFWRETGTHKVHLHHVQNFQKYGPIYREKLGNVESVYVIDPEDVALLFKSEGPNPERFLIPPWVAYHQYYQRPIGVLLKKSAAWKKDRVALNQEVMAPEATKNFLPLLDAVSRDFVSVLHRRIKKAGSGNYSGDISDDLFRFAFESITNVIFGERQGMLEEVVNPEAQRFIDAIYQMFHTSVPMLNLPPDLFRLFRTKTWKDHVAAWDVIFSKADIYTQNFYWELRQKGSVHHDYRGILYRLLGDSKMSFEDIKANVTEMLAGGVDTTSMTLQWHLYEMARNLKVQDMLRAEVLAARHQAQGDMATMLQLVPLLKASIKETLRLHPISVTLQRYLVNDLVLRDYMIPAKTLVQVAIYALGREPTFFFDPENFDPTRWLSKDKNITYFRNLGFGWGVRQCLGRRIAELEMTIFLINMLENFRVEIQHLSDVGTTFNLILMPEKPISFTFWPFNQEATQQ
Experiment: Pregnenolone synthesis inhibition in NCI-H295R cells (pregnenolone ELISA of culture supernatant)
Assay type: cell-based
Conditions: 24 hours incubation, pregnenolone in culture supernatant by ELISA
From the text: Conversion of cholesterol into pregnenolone is a first rate-limiting step in the synthesis of all steroid hormones in vertebrates. This conversion reaction involves a two-step continuous monooxygenation reaction catalyzed by the unique cytochrome P450scc (CYP11A) to produce C22-hydroxycholesterol and C20,C22-dihydroxycholesterol in order, followed by CYP11A1-catalyzed breakage of a C20-C22 carbon-carbon single bond in C20,C22-dihydroxycholesterol to produce one molecule of pregnenolone and one molecule of 4-methylvaleraldehyde. Therefore, the inhibitory effect of a compound on CYP11A1 was identified by detecting the ability of the compound to inhibit pregnenolone synthesis.
The ability of different compounds to inhibit pregnenolone biosynthesis was determined by detecting the concentration of pregnenolone (Abnova pregnenolone ELISA kit, KA1912) using enzyme-linked immunosorbent assay (ELISA), so as to detect the ability of the compounds to inhibit CYP11A1. […] In order to determine the half-maximal inhibitory concentrations (IC50) of CYP11A1 inhibition by different compounds, the compounds were added during NCI-H295R cell culture, and after incubation, the concentration of pregnenolone in the culture supernatant was determined.
95 µl of NCI-H295R cells were taken and cultured overnight with a specialized cell culture medium (Procell, CM-0399) in a 96-well culture plate in a cell incubator at 37°C and 5% CO2. 5 µl/well of a DMSO (Sigma, D8418) solution of the compounds to be tested at different concentrations was then added, followed by continued incubation for 24 hours. The final concentrations of the compounds to be tested were 1000 nM, 333.33 nM, 111.11 nM, 37.04 nM, 12.35 nM, 4.12 nM, 1.37 nM, 0.46 nM, and 0 nM. After the incubation was complete, the cells were centrifuged, 80 µl/well of the cell culture supernatant was obtained and 1 : 8 diluted with the cell culture medium, and the concentration of pregnenolone therein was then determined by ELISA method. During ELISA detection, a pregnenolone standard was used to generate a standard curve. The experiment was carried out with replicate wells. The ELISA well plate had been coated with an anti-pregnenolone rabbit polyclonal antibody. In ELISA plate strips, 50 µl/well of the diluted culture supernatant or standard solution or reference substance was added, followed by 100 µl of a pregnenolone-HRP complex solution, and the plate was incubated for 1 hour at room temperature on a plate shaker (QILINBEIER, QB-9002) at 200 rpm. Then, the plate was washed three times with a cleaning solution, with 300 µl each time, and patted dry on absorbent paper. 150 µl of a TMB substrate was added. The plate was incubated on the plate shaker for 10-15 minutes at room temperature, and 50 µl of a stop solution was then added. The absorbance was measured at 450 nm by a microplate reader (PerkinElmer, 2105). The IC50 value was calculated by using GraphPad Prism software. [formula]

| Structure (SMILES) | IC50 |
| --- | --- |
| CN(C)S(=O)(=O)N1CCC(COc2ccc(CN3Cc4ccc(C(F)(F)F)cc4C3)n(C)c2=O)CC1 [Compound 22, N,N-dimethyl-4-(((1-methyl-2-oxo-6-((5-(trifluoromethyl)isoindolin-2-yl)methyl)-1,2-dihydropyridin-3-yl)oxy)methyl)piperidine-1-sulfonamide] | 8.61 nM |
| [2H]C([2H])([2H])n1c(CN2Cc3ccc(C(F)(F)F)cc3C2)ccc(OCC2CCN(S(=O)(=O)C3CC3)CC2)c1=O [Compound 19, 3-((1-(cyclopropylsulfonyl)piperidine-4-yl)methoxy)-1-(methyl-d3)-6-((5-(trifluoromethyl)isoindolin-2-yl)methyl)pyridin-2(1H)-one] | 7.8 nM |
| [2H]C([2H])([2H])n1c(CN2Cc3ccc(F)cc3C2)ccc(OCC2CCN(S(C)(=O)=O)CC2)c1=O [Compound 24, 6-((5-fluoroisoindolin-2-yl)methyl)-1-(methyl-d3)-3-((1-(methylsulfonyl)piperidine-4-yl)methoxy)pyridin-2(1H)-one] | 4.86 nM |
| [2H]C([2H])([2H])n1c(CN2Cc3ccc(C(F)(F)F)cc3C2)ccc(OCC2CCN(S(C)(=O)=O)CC2)c1=O [Compound 14, 1-(methyl-d3)-3-((1-(methylsulfonyl)piperidine-4-yl)methoxy)-6-((5-(trifluoromethyl)isoindolin-2-yl)methyl)pyridin-2(1H)-one] | 4.75 nM |
| Cn1c(CN2Cc3ccc(F)cc3C2)ccc(OCC2CCN(S(C)(=O)=O)CC2)c1=O [Compound 5, 6-((5-fluoroisoindolin-2-yl)methyl)-1-methyl-3-((1-(methylsulfonyl)piperidine-4-yl)methoxy)pyridin-2(1H)-one] | 8.49 nM |
| CCn1c(CN2Cc3ccccc3C2)ccc(OCC2CCN(S(=O)(=O)NC)CC2)c1=O [Compound 29, 4-(((1-ethyl-6-(isoindolin-2-ylmethyl)-2-oxo-1,2-dihydropyridin-3-yl)oxy)methyl)-N-methylpiperidine-1-sulfonamide] | 14.8 nM |
| CS(=O)(=O)N1CCC(COc2ccc(CN3Cc4ccccc4C3)[nH]c2=O)CC1 [Compound 2, 6-(isoindolin-2-ylmethyl)-3-((1-(methylsulfonyl)piperidine-4-yl)methoxy)pyridin-2(1H)-one] | 222 nM |
| [2H]C([2H])([2H])n1c(CN2Cc3ccc(F)cc3C2)ccc(OCC2CCN(S(=O)(=O)C3COC3)CC2)c1=O [Compound 15, 6-((5-fluoroisoindolin-2-yl)methyl)-1-(methyl-d3)-3-((1-(oxetan-3-ylsulfonyl)piperidine-4-yl)methoxy)pyridin-2(1H)-one] | 3.99 nM |
| CC(=O)N1CCC(COc2ccc(CN3Cc4ccccc4C3)n(C)c2=O)CC1 [Compound 7, 3-((1-acetylpiperidine-4-yl)methoxy)-6-(isoindolin-2-ylmethyl)-1-methylpyridin-2(1H)-one] | 9.34 nM |
| Cn1c(CN2Cc3ccc(C(F)(F)F)cc3C2)ccc(OCC2CCN(S(C)(=O)=O)CC2)c1=O [Compound 13, 1-methyl-3-((1-(methylsulfonyl)piperidine-4-yl)methoxy)-6-((5-(trifluoromethyl)isoindolin-2-yl)methyl)pyridin-2(1H)-one] | 12 nM |
| Cn1c(CN2Cc3ccccc3C2)ccc(OCC2CCN(S(=O)(=O)C3COC3)CC2)c1=O [Compound 6] | 1.94 nM |

More lines, in order of falling IC50, values ahead:

| IC50 | Structure (SMILES) |
| --- | --- |
| 3.76 nM | [2H]C([2H])([2H])n1c(CN2Cc3ccccc3C2)ccc(OCC2CCN(S(C)(=O)=O)CC2)c1=O [Compound 17, 6-(isoindolin-2-ylmethyl)-1-(methyl-d3)-3-((1-(methylsulfonyl)piperidine-4-yl)methoxy)pyridin-2(1H)-one] |
| 3.57 nM | Cn1c(CN2Cc3ccc(C(F)(F)F)cc3C2)ccc(OCC2CCN(S(=O)(=O)C3COC3)CC2)c1=O [Compound 23, 1-methyl-3-((1-(oxetan-3-ylsulfonyl)piperidine-4-yl)methoxy)-6-((5-(trifluoromethyl)isoindolin-2-yl)methyl)pyridin-2(1H)-one] |
| 3.57 nM | Cn1c(CN2Cc3ccc(F)cc3C2)ccc(OCC2CCN(S(=O)(=O)C3COC3)CC2)c1=O [Compound 12, 6-((5-fluoroisoindolin-2-yl)methyl)-1-methyl-3-((1-(oxetan-3-ylsulfonyl)piperidine-4-yl)methoxy)pyridin-2(1H)-one] |
| 2.25 nM | Cn1c(CN2Cc3ccccc3C2)ccc(OCC2CCN(S(=O)(=O)C3CC3)CC2)c1=O [Compound 3, 3-((1-(cyclopropylsulfonyl)piperidine-4-yl)methoxy)-6-(isoindolin-2-ylmethyl)-1-methylpyridin-2(1H)-one] |
| 2.21 nM | Cn1c(CN2Cc3ccc(C(F)(F)F)cc3C2)ccc(OCC2CCN(S(=O)(=O)C3CC3)CC2)c1=O [Compound 21, 3-((1-(cyclopropylsulfonyl)piperidine-4-methyl)methoxy)-1-methyl-6-((5-(trifluoromethyl)isoindolin-2-yl)methyl)pyridin-2(1H)-one] |
| 1.98 nM | CN(C)S(=O)(=O)N1CCC(COc2ccc(CN3Cc4ccc(F)cc4C3)n(C)c2=O)CC1 [Compound 11, 4-(((6-((5-fluoroisoindolin-2-yl)methyl)-1-methyl-2-oxo-1,2-dihydropyridin-3-yl)oxy)methyl)-N,N-dimethylpiperidine-1-sulfonamide] |
| 1.94 nM | [2H]C([2H])([2H])n1c(CN2Cc3ccc(F)cc3C2)ccc(OCC2CCN(S(=O)(=O)C3CC3)CC2)c1=O [Compound 20] |
| 1.74 nM | CN(C)S(=O)(=O)N1CCC(COc2ccc(CN3Cc4ccccc4C3)n(C)c2=O)CC1 [Compound 4, 4-(((6-(isoindolin-2-ylmethyl)-1-methyl-2-oxo-1,2-dihydropyridin-3-yl)oxy)methyl)-N,N-dimethylpiperidine-1-sulfonamide] |
| 0.136 nM | CCn1c(CN2Cc3ccccc3C2)ccc(OCC2CCN(S(=O)(=O)C(F)(F)F)CC2)c1=O [Compound 27, 1-ethyl-6-(isoindolin-2-ylmethyl)-3-((1-((trifluoromethyl)sulfonyl)piperidine-4-yl)methoxy)pyridin-2(1H)-one] |
